Experimental data: patent US7582628B2, “Pyrrolo[3,4-c]pyrazole derivatives active as kinase inhibitors, process for their preparation and pharmaceutical compositions comprising them” (Pfizer Italia S.r.l., priority 2003, dated 2009)

Key:
HCT-116 [1] = assay: In vitro cell proliferation assay; assay type: cell-based; conditions: Homo sapiens; HCT-116, 72 hours of treatment; read-out: Cell Antiproliferation IC50
Procedure: In Vitro Cell Proliferation Assay
The human colon cancer cell line HCT-116 was seeded at 5000 cells/cm2 in 24 wells plate (Costar) using F12 medium (Gibco) supplemented with 10% FCS (EuroClone, Italy) 2 mM L-glutamine and 1% penicillin/streptomycin and maintained at 37° C., 5% CO2 and 96% relative humidity. The following day, plates were treated in duplicates with 5 ul of an appropriate dilution of compounds starting from a 10 mM stock in DMSO. Two untreated control wells were included in each plate. After 72 hours of treatment, medium was withdrawn and cells detached from each well using 0.5 ml of 0.05% (w/v) Trypsin, 0.02% (w/v) EDTA (Gibco). Samples were diluted with 9.5 ml of Isoton (Coulter) and counted using a Multisizer 3 cell counter (Beckman Coulter). Data were evaluated as percent of the control wells: % of CTR=(Treated−Blank)/(Control−Blank).
IC50 values were calculated by LSW/Data Analysis using Microsoft Excel sigmoidal curve fitting.

HCT-116 [2] = assay: In vitro cell cycle analysis; assay type: cell-based, human; conditions: HCT-116, 200 nM, treated for 24 hours
Procedure: In Vitro Cell Cycle Analysis
The human colon cancer cell line HCT-116 was seeded at 5000 cells/cm2 in 24 wells plate (Costar) and cultured as mentioned above. Cells in their exponential phase of growth were treated for 24 hours with different concentrations of compound. Also, culture medium supernatant was collected to avoid loss of detached apoptotic or mitotic cells. Thereafter, cells were washed using PBS and detached by 0.05% (w/v) trypsin, 0.02% (w/v) EDTA (Gibco). Trypsin activity was stopped using culture medium. Adherent and non-adherent cell fractions were pooled and centrifuged at 2000 rpm for 10 minutes. Cells were re-suspended in PBS and counted using a Multisizer 3 cell counter (Beckman Coulter). For fixation, ethanol was added (70%, v/v) and cells were kept at −20° C. overnight.
One million fixed cells were centrifuged at 2000 rpm for 5 minutes and washed with PBS and subsequently stained for 1 hour at room temperature in the dark by adding 200 µl: 25 µg/ml propidium iodide (Sigma) and 15 ug/ml RNAse A (Sigma), 0.001% (v/v) Nonidet P40 (Sigma) in sodium citrate (0.1% w/v, pH 7.5). Samples were analyzed by flow cytometry at 488 nm excitation (FACSCalibur, Beckton Dickinson) using Cell Quest 3.0 software (Beckton Dickinson). Typically 10000 events (activating doubles discriminate module DDM and gating only single cells) were collected and cell cycle profiles were recorded using CellQuest (Verity Software). Cell Cycle distribution of the population was calculated using a modified model in Modfit 3.1 software (Verity Software) and expressed in % G0/G1, S, G2/M and polyploidy.

Aurora-2 = target: T1, Aurora-2 (Homo sapiens, UniProt O14965); assay: Inhibition assay of Aurora-2 activity (SPA); assay type: biochemical; conditions: 10 μM ATP, 60 minutes at room temperature
T1 sequence (O14965 1-403): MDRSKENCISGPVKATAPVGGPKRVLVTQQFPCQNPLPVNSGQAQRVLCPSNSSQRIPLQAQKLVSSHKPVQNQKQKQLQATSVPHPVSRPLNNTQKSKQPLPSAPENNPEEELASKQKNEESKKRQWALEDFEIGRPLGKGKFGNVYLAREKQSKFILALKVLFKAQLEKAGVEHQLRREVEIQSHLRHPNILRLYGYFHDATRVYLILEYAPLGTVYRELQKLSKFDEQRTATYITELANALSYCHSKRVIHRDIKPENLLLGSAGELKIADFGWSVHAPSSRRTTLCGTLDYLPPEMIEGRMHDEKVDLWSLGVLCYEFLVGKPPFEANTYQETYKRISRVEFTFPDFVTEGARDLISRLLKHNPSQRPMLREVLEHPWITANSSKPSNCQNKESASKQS
Procedure: The inhibiting activity and the potency of selected compounds is determined through a method of assay based on the use of the SPA technology (Amersham Pharmacia Biotech). The assay consists of the transfer of radioactivity labelled phosphate moiety by the kinase to a biotinylated substrate. The resulting 33P-labelled biotinylated product is allowed to bind to streptavidin-coated SPA beads (biotin capacity 130 pmol/mg), and light emitted was measured in a scintillation counter.
Inhibition Assay of Aurora-2 Activity
Kinase reaction: 8 μM biotinylated peptide (4 repeats of LRRWSLG), 10 μM ATP (0.5 uCi P^33γ-ATP), 7.5 ng Aurora 2, inhibitor in a final volume of 30 μl buffer (HEPES 50 mM pH 7.0, MgCl2 10 mM, 1 mM DTT, 0.2 mg/ml BSA, 3 μM orthovanadate) were added to each well of a 96 U bottom well plate. After 60 minutes at room temperature incubation, reaction was stopped and biotinylated peptide captured by adding 100 μl of bead suspension.
Stratification: 100 μl of CsCl2 5 M were added to each well and let stand 4 hour before radioactivity was counted in the Top-Count instrument.
IC50 determination: inhibitors were tested at different concentrations ranging from 0.0015 to 10 μM. Experimental data were analyzed by the computer program GraphPad Prizm using the four parameter logistic equation: y=bottom+(top−bottom)/(1+10^((log IC50−x)*slope)) where x is the logarithm of the inhibitor concentration, y is the response; y starts at bottom and goes to top with a sigmoid shape.

Row | IC50 (HCT-116 [1]) [nM] | IC50 (Aurora-2) [nM] | SMILES | Cell Cycle block (% G2/M + polyploidy at 200 nM) (HCT-116 [2]) [%]
1 | 31 |  | CO[C@@H](C(=O)N1Cc2[nH]nc(NC(=O)c3ccc(N4CCN(C)CC4)cc3)c2C1)c1ccccc1 [Compound (1), N-{5-[(2R)-2-methoxy-2-phenylethanoyl]-1,4,5,6-tetrahydropyrrolo[3,4-c]pyrazol-3-yl}-4-(4-methylpiperazin-1-yl)benzamide] | 90
2 | 50 | 18 | CO[C@@H](C(=O)N1Cc2[nH]nc(NC(=O)c3ccc(N4CCN(C)C(C)C4)cc3)c2C1)c1ccccc1 (stereo partly drawn) [Compound (5), 4-(3,4-dimethylpiperazin-1-yl)-N-{5-[(2R)-2-methoxy-2-phenylethanoyl]-1,4,5,6-tetrahydropyrrolo[3,4-c]pyrazol-3-yl}benzamide] | 90
3 | 30 | 37 | CO[C@@H](C(=O)N1Cc2[nH]nc(NC(=O)c3ccc(N4CCCCC4)cc3)c2C1)c1ccccc1 [Compound (6), N-{5-[(2R)-2-methoxy-2-phenylethanoyl]-1,4,5,6-tetrahydropyrrolo[3,4-c]pyrazol-3-yl}-4-piperidin-1-ylbenzamide] | 90
4 | 17 | 63 | C[C@@H](C(=O)N1Cc2[nH]nc(NC(=O)c3ccc(N4CCN(C)CC4)cc3)c2C1)c1ccccc1 [Compound (11), N-{5-[(2R)-2-methyl-2-phenylethanoyl]-1,4,5,6-tetrahydropyrrolo[3,4-c]pyrazol-3-yl}-4-(4-methylpiperazin-1-yl)benzamide] | 90
5 | 220 | 140 | CN1CCN(c2ccc(C(=O)Nc3[nH]nc4c3CN(C(=O)Cc3ccccc3)C4)cc2)CC1 [Reference compound, N-{5-phenylacetyl-4,6-dihydropyrrolo[3,4-c]pyrazol-3-yl}-4-(4-methylpiperazino)benzamide, reference compound] | 33
